Results on 1 compound are retold here after US10413579B2, “Pharmaceutical composition for preventing or treating asthma comprising Pistacia weinmannifolia J. Poiss. ex Franch extract or fraction thereof” (Korea Research Institute of Bioscience and Biotechnology, priority 2013, dated 2019).

Holding throughout (type): in vivo, mouse
One experiment concerns interleukin-4. The experiment is described as follows: Interleukin-4 in bronchoalveolar lavage fluid (ELISA). The note with it: 30 mg/kg PO, mean±S.E. The procedure:
(§1) In the present experiment, 6-week-old Balb/c female mice having a body weight of about 20 g in average were used as experimental animals. After 1 week of acclimation, animals showing no abnormal findings on physical examination were used as subjects. 2 mg of aluminium hydroxide (A8222, Sigma, St. Louis, Mo.) and 20 μg of ovalbumin (A5503, Sigma, St. Louis, Mo.) were suspended in 200 μl of phosphate buffer (pH 7.4) and then injected into the peritoneal cavity of mouse for sensitization. On days 21 to 23 after the first intraperitoneal administration of ovalbumin, inhalation challenge was performed for 30 min with 1% ovalbumin using an ultrasonic atomizer. 24 hours after the last antigen administration, airway hyperresponsiveness was measured. 48 hours later, a lethal dose of pentobarbital (Entobal, Hanlim Pharmaceutical Co., Ltd.) was administered, body weight measurement and bronchotomy were performed, and bronchoalveolar lavage was performed with a total 1.2 mL of physiological saline, and then, samples were collected. […] Seven white mice were used for each group. […]
(§2) Briefly, 100 μl of bronchoalveolar lavage fluid was added to a well plate and allowed to react for 1 hour. […] Absorbance was measured at 450 nm.

In experiment [1] the test system is ovalbumin-sensitized asthma animal models. The experiment is described as follows: Inflammatory cells in bronchoalveolar lavage fluid of ovalbumin-sensitized asthma mice. The note with it: 30 mg/kg PO. The procedure:
(§3) In the present experiment, 6-week-old Balb/c female mice having a body weight of about 20 g in average were used as experimental animals. After 1 week of acclimation, animals showing no abnormal findings on physical examination were used as subjects. 2 mg of aluminium hydroxide (A8222, Sigma, St. Louis, Mo.) and 20 μg of ovalbumin (A5503, Sigma, St. Louis, Mo.) were suspended in 200 μl of phosphate buffer (pH 7.4) and then injected into the peritoneal cavity of mouse for sensitization. On days 21 to 23 after the first intraperitoneal administration of ovalbumin, inhalation challenge was performed for 30 min with 1% ovalbumin using an ultrasonic atomizer. 24 hours after the last antigen administration, airway hyperresponsiveness was measured. 48 hours later, a lethal dose of pentobarbital (Entobal, Hanlim Pharmaceutical Co., Ltd.) was administered, body weight measurement and bronchotomy were performed, and bronchoalveolar lavage was performed with a total 1.2 mL of physiological saline, and then, samples were collected. […] Seven white mice were used for each group.

The test system of another experiment is interleukin-5. In words: Interleukin-5 in bronchoalveolar lavage fluid (ELISA). The settings on record: 30 mg/kg PO, mean±S.E. The procedure:
as §1, §2
On the technique in general: An ELISA detects its analyte on a solid surface through an enzyme-linked reagent.

For another experiment, the system named is serum IgE. The experiment is described as follows: Serum IgE in ovalbumin-sensitized asthma mice (immunoenzymatic assay). The settings on record: 30 mg/kg PO. Here is the method:
as §3
(§4) To measure serum IgE and ovalbumin-specific IgE, an immunoenzymatic assay was used. IgE level was measured using a commercially available kit (Biolegend Ins., California, USA). […] For color development, 3,3′,5,5′-tetramethylbezidine substrate was allowed to react, and the spectroscopic absorbance was measured at 450 nm.

For another experiment, the system named is ovalbumin-specific IgE. The experiment is described as follows: Ovalbumin-specific IgE in serum of ovalbumin-sensitized asthma mice (ELISA). The settings on record: 30 mg/kg PO, mean±S.E. Here is the method: as §3, §4
The subject of a further experiment is interleukin-13. In words: Interleukin-13 in bronchoalveolar lavage fluid (ELISA). The note with it: 30 mg/kg PO, mean±S.E. The procedure:
as §1, §2

Take `CC(C)(O)c1ccccc1CC[C@@H](SCC1(CC(=O)O)CC1)c1cccc(/C=C/c2ccc3ccc(Cl)cc3n2)c1` [Mon, montelukast]: the IL-4 in the experiment with interleukin-4 turned out to be 34.6 ± 6.52 pg/mL. Moreover, in experiment [1] (OVA group (74±16.0)×10^5), the “number of eosinophils in bronchoalveolar lavage fluid” value is recorded as 36±20.4 ×10^5. The “number of total inflammatory cells in bronchoalveolar lavage fluid” value in experiment [1] (OVA group (180±22.2)×10^5) is given as 98±19.3 ×10^5. This compound yielded an IL-5 in the experiment with interleukin-5 of 32.4 ± 4.46 pg/mL. Also, in the experiment with serum IgE, the “serum IgE antibody level” value worked out at 1.8 ± 0.28 µg/mL. In addition, in the experiment on serum IgE (mean±S.E., Table 1), the IgE was 1.8 ± 0.28 ng/mL. In addition, in the experiment with ovalbumin-specific IgE, the “OVA-specific IgE” value came to 108 ± 83.0 ng/mL. This compound displayed an IL-13 in the experiment on interleukin-13 of 65.7 ± 18.86 pg/mL.
